# Experimental data taken from PMC11359809, “Probing the molecular basis for signal transduction through the Zinc-Activated Channel (ZAC)” (Biochemical pharmacology, 2021).
# Tests used:
# WT m5-HT3AR = biological target: T1, WT m5-HT3AR (Mus musculus, UniProt P23979); assay: TEVC in Xenopus oocytes expressing WT m5-HT3AR; format: cell-based; conditions: 5-HT 30 μM
# T1 construct: expressed in transfected cells; host or cells: Xenopus oocytes injected with cRNA (pUNIV vector)
# T1 sequence (P23979 24-489): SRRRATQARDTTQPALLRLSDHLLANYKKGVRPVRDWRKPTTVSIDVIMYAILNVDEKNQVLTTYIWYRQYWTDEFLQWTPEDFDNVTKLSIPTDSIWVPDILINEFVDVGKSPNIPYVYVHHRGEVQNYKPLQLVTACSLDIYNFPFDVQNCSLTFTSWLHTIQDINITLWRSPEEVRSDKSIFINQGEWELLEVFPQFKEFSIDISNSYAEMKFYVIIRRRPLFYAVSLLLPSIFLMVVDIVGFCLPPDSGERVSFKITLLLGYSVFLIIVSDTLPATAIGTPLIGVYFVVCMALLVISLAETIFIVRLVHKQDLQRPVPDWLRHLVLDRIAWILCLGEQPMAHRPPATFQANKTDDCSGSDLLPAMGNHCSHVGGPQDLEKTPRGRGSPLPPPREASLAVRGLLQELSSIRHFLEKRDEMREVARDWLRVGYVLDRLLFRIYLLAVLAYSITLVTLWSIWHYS
# Method: (§1) The recordings were performed at room temperature.
# (§2) Analysis of the data from the TEVC recordings were performed using Clampfit software version 10.5 (Molecular Devices, Crawley, UK) and GraphPad Prism version 7.0c (GraphPad Software, La Jolla, CA). Unless otherwise stated, the inward currents induced by agonists in oocytes were normalized to the maximal response elicited by a specific agonist (agonist Imax) on each oocyte. Concentration-response and concentration-inhibition curves were fitted in GraphPad Prism by nonlinear regression using the equation for sigmoidal dose-response with variable slope. Each data point represents the mean ± S.E.M. value of recordings performed on at least five oocytes in total from at least two different batches. For the data where statistical analysis was performed, a one-way ANOVA was used. The null hypothesis was rejected at P < 0.05, and the differences between the means were analyzed by Tukey’s multiple comparisons test.
# hα1-Gly/ZAC = assay: TEVC in oocytes expressing hα1-Gly/ZAC chimera; format: cell-based, human; conditions: 10 mM Zn^2+; outward current; n = 5
# Method: as §1, §2
# Initially, we constructed four chimeric subunits fusing the ZAC ECD or TMD-ICD with the complementary domains from either the m5-HT3A or the hα1 GlyR subunit: ZAC/m5-HT3A, m5-HT3A/ZAC, ZAC/hα1-Gly and hα1-Gly/ZAC (Fig. 1A). […] (Fig. 1A).
# ZAC/m5-HT3A-II = assay: TEVC in oocytes expressing ZAC/m5-HT3A-II chimera; format: cell-based, mouse/human; conditions: Zn^2+ 10 mM; H^+ pH 4.0; data not shown
# Method: as §1
# ZAC^H210A = biological target: T2, ZAC^H210A (Homo sapiens, UniProt Q401N2, A152T/H144A); assay: TEVC in oocytes, His120 Ala mutant; format: cell-based; conditions: 10 mM Zn^2+
# T2 construct: expressed in transfected cells; host or cells: Xenopus oocytes injected with cRNA (pUNIV vector)
# Method: as §1
# as §2, with “For the data where statistical analysis was performed, a one-way ANOVA was used.” left out
# (§3) The putative involvement of candidate residues in Clusters 1, 2, 3 and 4 in Zn^2+ binding to ZAC was investigated in by an elaborate alanine mutagenesis scanning. […] The determined IpH 4.0 value was used in part as a control and in part to enable the distinction of ZAC mutants non-responsive to Zn^2+ due to elimination of their ability to bind the metal ion from those where the mutation had eliminated cell surface expression and/or disrupted overall functionality of the receptor complex. […]
# ZAC^H120L = assay: TEVC in oocytes, ZAC H120L mutant; format: cell-based, human; conditions: agonist
# Method: as §1
# as §2, with “For the data where statistical analysis was performed, a one-way ANOVA was used.” left out
# as §3
# ZAC^H120F = assay: TEVC in oocytes, ZAC H120F mutant; format: cell-based, human; conditions: agonist
# Method: as §1
# as §2, with “For the data where statistical analysis was performed, a one-way ANOVA was used.” left out
# as §3
# ZAC^H79A = assay: TEVC in oocytes, ZAC H79A mutant; format: cell-based, human; conditions: agonist; parallel recordings
# Method: as §1
# as §2, with “For the data where statistical analysis was performed, a one-way ANOVA was used.” left out
# as §3
# ZAC^H82A = biological target: T3, ZAC^H82A (Homo sapiens, UniProt Q401N2, A152T/H106A); assay: TEVC in oocytes, ZAC H82A mutant; format: cell-based
# T3 construct: expressed in transfected cells; host or cells: Xenopus oocytes injected with cRNA (pUNIV vector)
# Method: as §1
# as §2, with “For the data where statistical analysis was performed, a one-way ANOVA was used.” left out
# as §3
# ZAC^H166A = biological target: T4, ZAC^H166A (Homo sapiens, UniProt Q401N2, A152T/H190A); assay: TEVC in oocytes, ZAC H166A mutant; format: cell-based
# T4 construct: expressed in transfected cells; host or cells: Xenopus oocytes injected with cRNA (pUNIV vector)
# Method: as §1
# as §2, with “For the data where statistical analysis was performed, a one-way ANOVA was used.” left out
# as §3
# [1] = biological target: T5, ZAC^E136A/H139A/D143A/H144A (Homo sapiens, UniProt Q401N2, A152T/D167A/E160A/H163A/H168A); assay: TEVC in oocytes, Cluster 2 quadruple mutant; format: cell-based; conditions: Zn^2+ 10 mM; H^+ pH 4.0; data not shown
# T5 construct: expressed in transfected cells; host or cells: Xenopus oocytes injected with cRNA (pUNIV vector)
# Method: as §1
# as §2, with “For the data where statistical analysis was performed, a one-way ANOVA was used.” left out
# as §3
# ZAC^H144A = biological target: T6, ZAC^H144A (Homo sapiens, UniProt Q401N2, A152T/H168A); assay: TEVC in oocytes, ZAC H144A mutant; format: cell-based
# T6 construct: expressed in transfected cells; host or cells: Xenopus oocytes injected with cRNA (pUNIV vector)
# Method: as §1
# as §2, with “For the data where statistical analysis was performed, a one-way ANOVA was used.” left out
# as §3
# ZAC^D105A/E130A = biological target: T7, ZAC^D105A/E130A (Homo sapiens, UniProt Q401N2, A152T/D129A/E154A); assay: TEVC in oocytes, ZAC D105A/E130A mutant; format: cell-based; conditions: 10 mM Zn^2+; data not shown
# T7 construct: expressed in transfected cells; host or cells: Xenopus oocytes injected with cRNA (pUNIV vector)
# Method: as §1
# as §2, with “For the data where statistical analysis was performed, a one-way ANOVA was used.” left out
# as §3
# ZAC^E89A/D105A = biological target: T8, ZAC^E89A/D105A (Homo sapiens, UniProt Q401N2, A152T/D129A/E113A); assay: TEVC in oocytes, ZAC E89A/D105A mutant; format: cell-based
# T8 construct: expressed in transfected cells; host or cells: Xenopus oocytes injected with cRNA (pUNIV vector)
# Method: as §1
# as §2, with “For the data where statistical analysis was performed, a one-way ANOVA was used.” left out
# as §3
# ZAC^L9′A = biological target: T9, ZAC^L9′A (Homo sapiens, UniProt Q401N2, A152T/L270A); assay: TEVC in oocytes, ZAC L9′A mutant; format: cell-based; conditions: agonist; n = 7
# T9 construct: expressed in transfected cells; host or cells: Xenopus oocytes injected with cRNA (pUNIV vector)
# T9 sequence (Q401N2 26-412 A152T/L270A): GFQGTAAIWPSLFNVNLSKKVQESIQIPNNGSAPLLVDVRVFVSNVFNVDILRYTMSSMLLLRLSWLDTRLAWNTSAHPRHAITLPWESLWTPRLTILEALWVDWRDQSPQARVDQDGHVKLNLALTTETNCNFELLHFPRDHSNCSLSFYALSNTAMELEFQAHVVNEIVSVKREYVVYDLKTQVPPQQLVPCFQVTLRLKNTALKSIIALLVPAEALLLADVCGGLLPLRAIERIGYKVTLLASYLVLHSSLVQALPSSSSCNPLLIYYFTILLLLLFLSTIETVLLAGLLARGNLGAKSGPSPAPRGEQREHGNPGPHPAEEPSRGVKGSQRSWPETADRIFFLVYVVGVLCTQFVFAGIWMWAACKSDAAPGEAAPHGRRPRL
# Method: as §1, §2
# ZAC^H79A/H120F = biological target: T10, ZAC^H79A/H120F (Homo sapiens, UniProt Q401N2, A152T/H103A/H144F); assay: TEVC in oocytes, ZAC H79A/H120F mutant; format: cell-based; conditions: parallel recordings, same oocyte batches
# T10 construct: expressed in transfected cells; host or cells: Xenopus oocytes (cRNA injection, pUNIV vector)
# Method: as §1
# as §2, with “For the data where statistical analysis was performed, a one-way ANOVA was used.” left out
# as §3
# ZAC^H82A/H120F = biological target: T11, ZAC^H82A/H120F (Homo sapiens, UniProt Q401N2, A152T/H106A/H144F); assay: TEVC in oocytes, ZAC H82A/H120F mutant; format: cell-based; conditions: parallel recordings, same oocyte batches
# T11 construct: expressed in transfected cells; host or cells: Xenopus oocytes (cRNA injection, pUNIV vector)
# Method: as §1
# as §2, with “For the data where statistical analysis was performed, a one-way ANOVA was used.” left out
# as §3
# T5 sequence (Q401N2 26-412 A152T/E160A/H163A/D167A/H168A): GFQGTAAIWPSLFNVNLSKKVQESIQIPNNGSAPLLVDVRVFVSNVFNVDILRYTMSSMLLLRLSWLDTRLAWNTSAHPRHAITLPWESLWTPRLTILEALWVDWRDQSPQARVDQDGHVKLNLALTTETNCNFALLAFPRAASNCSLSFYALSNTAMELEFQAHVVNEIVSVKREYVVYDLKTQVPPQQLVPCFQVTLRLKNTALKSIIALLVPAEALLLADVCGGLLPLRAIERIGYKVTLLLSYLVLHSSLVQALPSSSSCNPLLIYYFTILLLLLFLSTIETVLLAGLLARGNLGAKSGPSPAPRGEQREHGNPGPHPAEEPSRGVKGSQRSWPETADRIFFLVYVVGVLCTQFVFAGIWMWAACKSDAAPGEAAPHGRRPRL
# T3 sequence (Q401N2 26-412 H106A/A152T): as the sequence (Q401N2 26-412 A152T/E160A/H163A/D167A/H168A) above, with H81A, A135E, A138H, A142D, A143H counted along it
# T6 sequence (Q401N2 26-412 A152T/H168A): as the sequence (Q401N2 26-412 A152T/E160A/H163A/D167A/H168A) above, with A135E, A138H, A142D counted along it
# T8 sequence (Q401N2 26-412 E113A/D129A/A152T): as the sequence (Q401N2 26-412 A152T/E160A/H163A/D167A/H168A) above, with E88A, D104A, A135E, A138H, A142D, A143H counted along it
# T10 sequence (Q401N2 26-412 H103A/H144F/A152T): as the sequence (Q401N2 26-412 A152T/E160A/H163A/D167A/H168A) above, with H78A, H119F, A135E, A138H, A142D, A143H counted along it
# T7 sequence (Q401N2 26-412 D129A/A152T/E154A): as the sequence (Q401N2 26-412 A152T/E160A/H163A/D167A/H168A) above, with D104A, E129A, A135E, A138H, A142D, A143H counted along it
# T4 sequence (Q401N2 26-412 A152T/H190A): as the sequence (Q401N2 26-412 A152T/E160A/H163A/D167A/H168A) above, with A135E, A138H, A142D, A143H, H165A counted along it
# T11 sequence (Q401N2 26-412 H106A/H144F/A152T): as the sequence (Q401N2 26-412 A152T/E160A/H163A/D167A/H168A) above, with H81A, H119F, A135E, A138H, A142D, A143H counted along it
# T2 sequence (Q401N2 26-412 H144A/A152T): as the sequence (Q401N2 26-412 A152T/E160A/H163A/D167A/H168A) above, with H119A, A135E, A138H, A142D, A143H counted along it
structure (smiles),measurement,setting,value
"[Cl-].[Cl-].[Zn+2] [Zn^2+, ZnCl2]",modulation of 5-HT (EC80)-evoked currents,WT m5-HT3AR,potentiated the 5-HT-induced response through WT m5-HT3AR at low-micromolar concentrations and inhibited it at higher concentrations
same,I10 mM Zn2+ ± S.E.M.,hα1-Gly/ZAC,0.0298 ± 0.0058 μA
same,agonist-evoked current,ZAC/m5-HT3A-II,did not evoke significant currents
same,I10 mM Zn2+,ZAC^H210A,5–30 nA
same,fitted EC50 relative to WT ZAC (higher),ZAC^H120L,~ 3 fold
same,fitted EC50 relative to WT ZAC (higher),ZAC^H120F,~ 3 fold
same,fitted EC50 relative to WT ZAC (higher),ZAC^H79A,2.4 fold
same,agonist properties compared to WT ZAC,ZAC^H82A,WT-like agonist properties
same,agonist properties compared to WT ZAC,ZAC^H166A,WT-like agonist properties
same,agonist responsiveness,[1],non-responsive
same,functional properties as agonist compared to WT ZAC,ZAC^H144A,not altered significantly
same,agonist responsiveness,ZAC^D105A/E130A,non-responsive
same,concentration-response relationship compared to WT ZAC,ZAC^E89A/D105A,very similar to that at WT ZAC
same,EC50,ZAC^L9′A,230 µM
same,nH ± S.E.M. (Hill slope),ZAC^L9′A,1.2 ± 0.2
same,pEC50 ± S.E.M.,ZAC^L9′A,3.64 ± 0.08
same,ability to elicit ZAC signalling compared to WT ZAC,ZAC^H79A/H120F,did not appear to impair
same,ability to elicit ZAC signalling compared to WT ZAC,ZAC^H82A/H120F,did not appear to impair
